From patent US20260109690A1, “HDAC6 INHIBITORS AND METHOD OF THEIR USE” (Baerenkraft Therapeutics, LLC., priority 2024, published 2026) come the findings set out here.

This assay deals with T1, HDAC6 (Homo sapiens, UniProt Q9UBN7).
T1 sequence (Q9UBN7 1-1215): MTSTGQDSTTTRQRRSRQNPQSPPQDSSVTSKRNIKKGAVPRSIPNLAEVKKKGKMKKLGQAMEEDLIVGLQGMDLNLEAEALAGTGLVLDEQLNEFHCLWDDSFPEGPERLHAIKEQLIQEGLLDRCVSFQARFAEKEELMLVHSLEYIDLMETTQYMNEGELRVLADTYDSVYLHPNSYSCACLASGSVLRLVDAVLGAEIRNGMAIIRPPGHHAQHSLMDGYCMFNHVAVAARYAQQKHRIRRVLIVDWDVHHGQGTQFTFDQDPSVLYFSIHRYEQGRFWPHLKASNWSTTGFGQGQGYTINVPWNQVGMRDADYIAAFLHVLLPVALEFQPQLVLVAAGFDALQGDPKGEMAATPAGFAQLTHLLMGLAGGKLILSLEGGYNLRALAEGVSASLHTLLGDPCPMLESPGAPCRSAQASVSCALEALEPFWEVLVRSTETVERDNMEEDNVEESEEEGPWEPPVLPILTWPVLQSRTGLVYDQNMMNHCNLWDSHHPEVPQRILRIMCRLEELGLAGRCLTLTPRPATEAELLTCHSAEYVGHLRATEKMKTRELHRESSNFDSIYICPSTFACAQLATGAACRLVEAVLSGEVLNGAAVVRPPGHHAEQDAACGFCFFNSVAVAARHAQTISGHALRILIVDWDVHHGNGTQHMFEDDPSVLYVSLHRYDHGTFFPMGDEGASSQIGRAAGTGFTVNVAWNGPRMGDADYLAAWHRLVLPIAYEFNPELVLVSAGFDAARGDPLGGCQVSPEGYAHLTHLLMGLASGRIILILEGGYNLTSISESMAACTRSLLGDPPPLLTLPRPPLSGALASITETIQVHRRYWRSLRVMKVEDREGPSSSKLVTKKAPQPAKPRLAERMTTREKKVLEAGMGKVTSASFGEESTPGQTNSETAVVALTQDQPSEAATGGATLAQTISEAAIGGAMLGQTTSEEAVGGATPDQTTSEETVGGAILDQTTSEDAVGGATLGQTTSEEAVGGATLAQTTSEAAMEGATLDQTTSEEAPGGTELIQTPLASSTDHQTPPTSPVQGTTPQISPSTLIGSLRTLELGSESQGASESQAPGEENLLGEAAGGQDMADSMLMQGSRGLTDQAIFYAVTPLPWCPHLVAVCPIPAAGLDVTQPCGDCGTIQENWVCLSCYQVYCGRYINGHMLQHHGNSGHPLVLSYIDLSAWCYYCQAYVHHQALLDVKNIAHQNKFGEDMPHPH
The assay is described as follows: NanoBRET assay for target engagement in HEK293 cells transiently transfected with HDAC6. To be noted: HEK293 cells transfected with HDAC6-NanoLuc Fusion vector, 1 hour. It is filed as cell-based.

SMILES strings stand for the structures. “And” between values parts separate entries of the source, which are not always exact repeats. Equal values may be shown once.

A word on the IC50: it is the concentration that gives 50% inhibition. Read a low IC50 as greater potency in that assay. As for `CC1CN(Cc2ccc(Nc3nccc(-c4ccc(C(=O)NO)cc4)n3)cc2F)CCO1` (racemic) [Compound I-8, 4-(2-((3-fluoro-4-((2-methylmorpholino)methyl)phenyl)amino)pyrimidin-4-yl)-N-hydroxybenzamide], the IC50 is 34.7 nM and 35 nM.
